According to patent US20250051293A1, “NOVEL OXADIAZOLE DERIVATIVE AND USE THEREOF” (CELROS BIOTECH, priority 2021, published 2025):
Read-outs that look alike come from different tables or passages of the source.

How the values were obtained:
[1] = target: T1, human NOX2 (Homo sapiens, UniProt P04839); assay: Lucigenin chemiluminescence assay, drosophila membranes expressing hNOX2; assay type: biochemical; settings: average of three repeats
T1 construct: made in house; host or cells: transgenic Drosophila (Da-GAL4 driven UAS-hNOX2, dDuox RNAi background); membranes from homogenized flies
T1 sequence (P04839 2-570 limits assumed): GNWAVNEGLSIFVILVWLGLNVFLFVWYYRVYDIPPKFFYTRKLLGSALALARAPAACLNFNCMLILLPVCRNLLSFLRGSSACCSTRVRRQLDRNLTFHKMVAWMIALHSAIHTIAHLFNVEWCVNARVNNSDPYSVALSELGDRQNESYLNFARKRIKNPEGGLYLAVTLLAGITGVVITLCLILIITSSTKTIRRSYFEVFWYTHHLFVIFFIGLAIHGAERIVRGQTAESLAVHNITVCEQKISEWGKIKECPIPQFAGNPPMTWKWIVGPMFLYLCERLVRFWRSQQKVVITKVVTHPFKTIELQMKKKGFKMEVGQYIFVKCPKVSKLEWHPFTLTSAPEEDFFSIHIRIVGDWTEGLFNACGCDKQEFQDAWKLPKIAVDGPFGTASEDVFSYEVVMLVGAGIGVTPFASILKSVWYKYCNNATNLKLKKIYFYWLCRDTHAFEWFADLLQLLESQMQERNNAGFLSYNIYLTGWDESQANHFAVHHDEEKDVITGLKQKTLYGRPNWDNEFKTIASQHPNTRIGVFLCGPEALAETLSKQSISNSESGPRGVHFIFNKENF
Method: (§1) Human NOX isozymes were provided from transgenic flies expressing human NOX isozymes from the daughterless (Da)-GAL4 promoter. The genotype of each fly line is shown below. • human NOX2:UAS-hNOX2/UAS-dDuox-RNAi; Da-GAL4/+ • human NOX4:UAS-hNOX4/UAS-dDuox-RNAi; Da-GAL4/+
(§2) Transgenic flies were homogenized in PBS containing protease inhibitors (aprotinin, leupeptin) to obtain drosophila membranes of each NOX isozyme. The membranes were incubated with the compounds (100 μM, 10 μM, 1 μM, 0.1 μM, 0.01 μM, 0.001 μM, and 0 μM) for 10 minutes in a shaker. Then, to the membranes, a mixture of 500 μM NADPH (R-nicotinamide adenine dinucleotide 2′-phosphate reduced tetrasodium salt hydrate; Sigma-Aldrich) and 400 μM lucigenin (N,N′-dimethyl-9,9-biacridinium dinitrate; Sigma-Aldrich) in 1× HEPES (4-(2-hydroxyethyl)-1-piperazineethanesulfonic acid) buffer was added. Lucigenin chemiluminescence was detected at 1-minute intervals for 10 minutes using a multimode microplate reader (SpectraMax iD3, Molecular Devices). IC50 values were calculated with Graph-Pad Prism 5 (GraphPad Software).
(§3) The lucigenin chemiluminescence assay was performed with drosophila membranes expressing hNOX1, hNOX2, and hNOX4. The assay was repeated three times and the IC50 values were averaged.

[2] = target: T2, human NOX4 (Homo sapiens, UniProt Q9NPH5); assay: Lucigenin chemiluminescence assay, drosophila membranes expressing hNOX4; assay type: biochemical; settings: average of three repeats
T2 construct: made in house; host or cells: transgenic Drosophila (Da-GAL4 driven UAS-hNOX4, dDuox RNAi background); membranes from homogenized flies
T2 sequence (Q9NPH5 1-578): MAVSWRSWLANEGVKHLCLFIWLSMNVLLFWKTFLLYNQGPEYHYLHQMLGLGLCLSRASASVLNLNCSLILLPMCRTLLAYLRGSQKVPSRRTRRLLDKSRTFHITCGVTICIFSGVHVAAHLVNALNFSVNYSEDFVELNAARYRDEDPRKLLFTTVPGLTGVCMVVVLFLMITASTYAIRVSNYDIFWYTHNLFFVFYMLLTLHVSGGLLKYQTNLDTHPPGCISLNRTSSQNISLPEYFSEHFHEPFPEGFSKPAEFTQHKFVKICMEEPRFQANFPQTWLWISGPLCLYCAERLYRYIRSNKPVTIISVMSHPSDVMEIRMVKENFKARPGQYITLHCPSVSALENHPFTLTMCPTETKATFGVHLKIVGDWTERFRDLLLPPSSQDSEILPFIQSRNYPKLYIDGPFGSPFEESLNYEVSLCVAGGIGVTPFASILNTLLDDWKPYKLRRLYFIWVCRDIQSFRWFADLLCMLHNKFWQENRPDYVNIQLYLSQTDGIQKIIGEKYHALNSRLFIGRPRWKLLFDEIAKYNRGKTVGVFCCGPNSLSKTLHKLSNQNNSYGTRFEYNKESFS
Method: as §1, §2, §3

[3] = PAMPA-BBB assay; assay type: in vitro ADME
Method: The parallel artificial membrane permeability assay (PAMPA) was performed to determine the brain barrier blood (BBB) permeability. […] For the Blank measurement, the donor buffer was dispensed into a high sensitivity UV plate at 150 μl per well and the UV values were measured (Blank sample). For the initial value measurement, the mixture in the deep well plate was dispensed 150 μl per well into the UV plate and the UV values were measured (initial sample). Next, 200 μl of the test compound mixture was dispensed onto the donor plate of the PAMPA sandwich, and the acceptor plate of the PAMPA sandwich was inverted and the membrane was coated with 5 μl of BBB-lipid solution. Then, 200 μl of acceptor sink buffer was added to each well of the acceptor plate, and the acceptor plate and donor plate were combined and incubated at 25° C. for 4 hours. […] Finally, the permeability (Pe(10^−6 cm/sec)) was analyzed using the PAMPA explore program. The experiment was performed in three replicates. The permeability of the material was analyzed by UV measurement and LC-MS/MS, the specific conditions of which are described below.

[4] = Metabolic stability in human liver microsomes; assay type: in vitro ADME; settings: human liver microsomes 0.5 mg/ml, 1 μM, 30 minutes, 37° C., NADPH
Method: The stability of a drug may be predicted by using liver microsomes to determine the extent to which the drug is metabolized in the liver. […] Thus, a metabolic stability verification experiment was performed on the oxadiazole derivatives according to The present disclosure.
Specifically, sample treatment human liver microsomes (0.5 mg/ml), 0.1 M phosphate buffer (pH 7.4), and test compound at a concentration of 1 μM were added, and the mixture was pre-incubated at 37° C. for 5 minutes, followed by addition of NADPH Regeneration system solution and incubation at 37° C. for 30 minutes. An acetonitrile solution containing an internal standard (chlorpropamide) was then added to terminate the reaction, followed by centrifugation for 5 minutes (14,000 rpm, 4° C.). Then, the supernatant was injected into the LC-MS/MS system to analyze the substrate drug to evaluate the metabolic stability of the two compounds.
The HPLC column was an Acquity UPLC BEH Amide column (2.1×100 mm, 1.7 μm particle size; Waters, Ireland). The mobile phases were distilled water containing 0.1% formic acid (A) and acetonitrile containing 0.1% formic acid (B). Data analysis was performed using Analyst software (version 1.6.3).

[5] = tested on: U87; assay: Mouse model xenografted with brain tumor glioblastoma U87; assay type: in vivo, mice; settings: Example 2 study: Example 2 50 mg/kg 5 times per week, TMZ 5 mg/kg 2 times per week, from 20 days after xenografting; vehicle 42 days
Method: To confirm the therapeutic effect on brain tumor glioblastoma, U87 (5×10^4), a human brain tumor cell line, was xenografted into the brains of mice to establish a brain tumor model, followed by oral administration of the drugs.
Different experimental groups were evaluated for each compound.
First, with respect to the compound of Example 1, the experimental groups were divided into Vehicle (n=3) and the compound of Example 1, 50 mg/kg (n=3) and the administered with the drug orally 5 times a week 20 days after U87 xenografting.
With respect to the compound of Example 2, the experimental groups were divided into Vehicle (n=9), TMZ 5 mg/kg (Temozolomide, n=10, 2 times per week), the compound of Example 2, 50 mg/kg (n=8, 5 times per week), and combination (TMZ+the compound of Example 2, n=7), and began receiving the drug 20 days after U87 xenografting.

[6] = 50 μM, incubation 4 hr, pH 7.4, 25° C., U.V, read-out: Permeability Pe

Row | Compound | IC50 [1] | IC50 [2] | Papp at 4 h, 50 μM [3, 6] | Human (% ) remaining, microsomal stability [4] | Papp at 4 h, 50 μM ([3]; pH 7.4) | median survival time [5]
1 | O=C(Nc1nnc(-c2cccc(-c3ccoc3)c2)o1)c1ccc(F)c(C(F)(F)F)c1 [Example 10] | 0.1 µM | 0.16 µM | > 0.4 ×10⁻⁶ cm/s | 94.9% |  | 
2 | O=C(Nc1nnc(-c2cccc(-c3ccsc3)c2)o1)c1cc(F)cc(C(F)(F)F)c1 [Example 9] | 0.15 µM | 0.13 µM |  |  |  | 
3 | Cn1nnc2c(C(N)=O)ncn2c1=O [TMZ, Temozolomide, reference compound] |  |  |  |  |  | 54.5 days
4 | O=C(Nc1nnc(-c2cccc(C(F)(F)F)c2)o1)c1cc(F)cc(C(F)(F)F)c1 [Example 12, 3-fluoro-5-(trifluoromethyl)-N-(5-(3-(trifluoromethyl)phenyl)-1,3,4-oxadiazol-2-yl)benzamide] | 0.14 µM | 0.12 µM |  | 90.0% |  | 
5 | CC(=O)[C@H]1CC[C@H]2[C@@H]3CCC4=CC(=O)CC[C@]4(C)[C@H]3CC[C@]12C [Progesterone, reference compound] |  |  |  |  | > 0.4 ×10⁻⁶ cm/s | 
6 | O=C(Nc1nnc(-c2cccc(-c3ccsc3)c2)o1)c1ccc(F)c(C(F)(F)F)c1 [Example 8] | 0.16 µM | 0.19 µM |  |  |  | 

Further lines, with some results ahead:

Row | IC50 [1] | IC50 [2] | Papp at 4 h, 50 μM [3, 6] | Human (% ) remaining, microsomal stability [4] | Papp at 4 h, 50 μM ([3]; pH 7.4) | Compound | median survival time [5]
7 | 0.19 µM | 0.12 µM |  |  |  | O=C(Nc1nnc(-c2ccccc2)o1)c1ccc(I)c(C(F)(F)F)c1 [Example 7, 4-iodo-N-(5-phenyl-1,3,4-oxadiazol-2-yl)-3-(trifluoromethyl)benzamide] | 
8 | 0.18 µM | 0.14 µM |  |  |  | O=C(Nc1nnc(-c2cccc(C(F)(F)F)c2)o1)c1ccc(F)c(C(F)(F)F)c1 [Example 5, 4-fluoro-3-(trifluoromethyl)-N-(5-(3-(trifluoromethyl)phenyl)-1,3,4-oxadiazol-2-yl)benzamide] | 
9 | 0.24 µM | 0.38 µM |  |  |  | O=C(Nc1nnc(-c2ccccc2)o1)c1cc(F)cc(C(F)(F)F)c1 [Example 3, 3-fluoro-N-(5-phenyl-1,3,4-oxadiazol-2-yl)-5-(trifluoromethyl)benzamide] | 
10 | 0.23 µM | 0.27 µM |  |  |  | O=C(Nc1nnc(-c2cccc(Cl)c2)o1)c1ccc(F)c(C(F)(F)F)c1 [Example 6, N-(5-(3-chlorophenyl)-1,3,4-oxadiazol-2-yl)-4-fluoro-3-(trifluoromethyl)benzamide] | 
11 |  |  |  |  | < 0.4 ×10⁻⁶ cm/s | CNC(=C[N+](=O)[O-])NCCSCc1ccc(CN(C)C)o1 [Ranitidine, reference compound] | 
12 | 0.21 µM | 0.25 µM |  |  |  | O=C(Nc1nnc(-c2cccc(Br)c2)o1)c1ccc(F)c(C(F)(F)F)c1 [Example 4, N-(5-(3-bromophenyl)-1,3,4-oxadiazol-2-yl)-4-fluoro-3-(trifluoromethyl)benzamide] | 
13 | 0.17 µM | 0.26 µM | > 0.4 ×10⁻⁶ cm/s |  |  | O=C(Nc1nnc(-c2cccc(-c3ccoc3)c2)o1)c1cc(F)cc(C(F)(F)F)c1 [Example 11] | 
14 | 0.15 µM | 0.17 µM | > 0.4 ×10⁻⁶ cm/s | 79.0% |  | O=C(Nc1nnc(-c2cccc(Br)c2)o1)c1cc(F)cc(C(F)(F)F)c1 [Example 13, N-(5-(3-bromophenyl)-1,3,4-oxadiazol-2-yl)-3-fluoro-5-(trifluoromethyl)benzamide] | 
